# Results: publication PMC7573825 (Frontiers in Pharmacology, 2020)
# Where two headings read alike, the source gives them in different places.
# Tests used:
# [1] = parameters: method as in 3 sources, one per row (each row's own in cited_ref): ref Adane et al., 2015; Lin et al., 2016 ||| ref Ji et al., 2018 ||| ref Lin et al., 2019; conditions: ref Adane et al., 2015, Lin et al., 2016, cited from earlier work
# [2] = system: most sensitive bacteria; parameters: method as in Bhongsatiern et al., 2015; Bruniera et al., 2015; conditions: ref Bhongsatiern et al., 2015, Bruniera et al.; cited from earlier work
# [3] = Population pharmacokinetic modeling (NONMEM, one-compartment) of intravenous vancomycin from TDM trough plasma concentrations in kidney transplant recipients; conditions: for Typical value of V / Typical value of CL: intravenous vancomycin, 56 adult kidney transplant recipients
# Protocol: All these patients adopted routine therapeutic drug monitoring. The transplant surgeries were performed between March 8 and June 21 in 2017. […] The glomerular filtration rate (GFR) was estimated from the sCr according to the published formula [GFR (ml min^-1): GFR = 2.104*sCr(μM) - 1.154*age - 1.154*(0.742 for female)*1.233(correction for Chinese)]
# Other concomitantly used drugs, such as prednisone, mycophenolate mofetil, cyclosporine, and tacrolimus were administered orally or intravenously once or twice a day, and their usages and doses were based on clinical necessity and safety.
# The venous blood was centrifuged at 1,000 g for 4 min and a volume of 100 ml supernatant plasma was mixed with 100 ml of 5% perchloric acid solution. The mixture was fully vortex blended and then centrifuged at 14,000 g for 5 min. […] AHC-C18 column (250 mm × 4.6 mm, 5 μm; ShimadzuCo., Japan), a precolumn (10 mm × 4 mm, 5 μm; ShimadzuCo.), and a PDA detector (ShimadzuCo.) were used in the workstation. The mobile phase was acetonitrile in 0.01 M KH2PO4 solution (7:93 in volume), the flow rate was 0.5 ml min^-1, the column temperature was 30°C, and the detection wavelength was 236 nm. […] After using the same parallel method for sample preparation as mentioned above, the standard samples were simultaneously injected with the samples for testing.
# Data processing and pharmacokinetic analysis were carried out with the nonlinear mixed-effects model program (NONMEM®, Version 7.4; Icon Inc, PA, USA), compiled with GFortran (Version 4.9.2; http://www.gfortran.org). The output was explored by the R package (Version 3.3.1; http://www.r-project.org) and Xpose (Version 4.5.3; http://xpose.sourceforge.net). The first-order conditional estimation method with η-ε interaction (FOCE-I) was used throughout the model-building procedure.
# First, we established the base compartment model. For the statistical modeling, exponential model was used as the inter-individual variation model:
# For the residual variation modeling, additive, proportional, and mixed models were applied. The additive and proportional mixed model is as follows:
# In the forward model building step, the covariates were assessed for their suitability depending on the changes in the objective function values (OFV) and the inter-individual variations and residual variations. Taking an example with df = 1, when the decrease of OFV is more than 3.84 (P < 0.05, df = 1), the introduced factor can be considered as a significant covariate for the parameter model. During the backward analysis, a covariate was removed from the model every time, except when the OFV value increased by more than 6.63 units (P < 0.01, df = 1).
# For the effects of continuous variables on pharmacokinetic parameters, linear, exponential, and power function models were used. The linear function model was:
smiles,measurement,setting,value
CN[C@H](CC(C)C)C(=O)N[C@H]1C(=O)N[C@@H](CC(N)=O)C(=O)N[C@H]2C(=O)N[C@H]3C(=O)N[C@H](C(=O)N[C@H](C(=O)O)c4cc(O)cc(O)c4-c4cc3ccc4O)[C@H](O)c3ccc(c(Cl)c3)Oc3cc2cc(c3O[C@@H]2O[C@H](CO)[C@@H](O)[C@H](O)[C@H]2O[C@H]2C[C@](C)(N)[C@H](O)[C@H](C)O2)Oc2ccc(cc2Cl)[C@H]1O [vancomycin],Vancomycin clearance,"[1]; adult Chinese patients with post-craniotomy meningitis, typical creatinine clearance rate 104.7 ml/min",7.56 L/h
same,Vancomycin clearance,[1]; patients with augmented renal clearance,8.52 L/h
same,minimum inhibitory concentration (MIC),[2],0.1 to 2 mg/L
same,Typical value of V,"[3]; base model, one-compartment, 195 plasma Cmin",45.5 L
same,Typical value of CL,"[3]; base model, one-compartment, 195 plasma Cmin, HPLC, FOCE-I",1.84 L/h
same,Typical value of CL,"[3]; final model, CL=2.08×[(WT/59.95)^1.07]×[(GFR/36.67)^0.698], 195 plasma Cmin",2.08 L/h
same,Typical value of V,"[3]; final model, V=63.2×[(WT/59.95)^0.934]",63.2 L
same,Influential factor for WT on V (θ3),"[3]; final model, power function exponent",0.934
